According to patent US6465429B1, “Antimicrobial cationic peptides” (priority 1995, dated 2002):

Assays:
[1] = test system: X. maltophila; test: Synergy of peptide and antibiotic, MIC and FIC (checkerboard); format: cell-based; settings: agent alone
Procedure: (§1) FICs are performed by checkerboard titrations of peptides in one dimension of a microtiter plate, and of antibiotics in the other dimension, for example. The FIC is calculated by looking at the impact of one antibiotic on the MIC of the other and vice versa. […] Preferably, an FIC of less than 0.5 is obtained for synergism. As used herein, FIC can be determined as follows: [formula]
(§2) Synergism is identified as an FIC of about ≦0.5.

[2] = test system: A. calcoaceticus; test: as above; format: cell-based; settings: Acinetobacter calcoaceticus, agent alone
Procedure: as §1, §2

[3] = test system: E. cloacae; test: as above; format: cell-based; settings: Enterobacter cloacae, agent alone
Procedure: as §1, §2

[4] = test system: P. aeruginosa; test: microbe, parasite or virus in culture; settings: agent alone
Procedure: as §1, §2

[5] = X. maltophila isolate 35, strain 6
[6] = X. maltophila isolate 37, strain 3095
[7] = X. maltophila isolate 38, strain 7901
[8] = X. maltophila isolate 39, strain B3110.1
[9] = X. maltophila isolate 40, strain R1302-1
[10] = X. maltophila isolate 41, strain R4230
[11] = X. maltophila isolate 42, strain TF29-1
[12] = X. maltophila isolate 43, strain TF29-2
[13] = X. maltophila isolate 44, strain W6896-2
[14] = A. calcoaceticus isolate 1, strain ATCC 23055
[15] = A. calcoaceticus isolate 3, strain 27
[16] = A. calcoaceticus isolate 4, strain 28
[17] = A. calcoaceticus isolate 5, strain 8220
[18] = A. calcoaceticus isolate 6, strain 8221
[19] = A. calcoaceticus isolate 7, strain 8222
[20] = A. calcoaceticus isolate 8, strain 8223
[21] = A. calcoaceticus isolate 9, strain 8224
[22] = A. calcoaceticus isolate 10, strain 8225
[23] = A. calcoaceticus isolate 11, strain 8226
[24] = E. cloacae isolate 12, strain ATCC 13047
[25] = E. cloacae isolate 13, strain 37-1
[26] = E. cloacae isolate 14, strain 938-2
[27] = E. cloacae isolate 15, strain B5546
[28] = E. cloacae isolate 16, strain R4148
[29] = E. cloacae isolate 17, strain R4148-2
[30] = E. cloacae isolate 18, strain 3077
[31] = E. cloacae isolate 19, strain 3356
[32] = E. cloacae isolate 20, strain 14269
[33] = E. cloacae isolate 21, strain 14661
[34] = E. cloacae isolate 22, strain 18801
[35] = Pseudomonas aeruginosa, P. aeruginosa isolate 23, strain ATCC 27853
[36] = Pseudomonas aeruginosa, P. aeruginosa isolate 24, strain 34
[37] = Pseudomonas aeruginosa, P. aeruginosa isolate 25, strain 923-1
[38] = Pseudomonas aeruginosa, P. aeruginosa isolate 26, strain 3101
[39] = Pseudomonas aeruginosa, P. aeruginosa isolate 27, strain 14644
[40] = Pseudomonas aeruginosa, P. aeruginosa isolate 28, strain 15036
[41] = Pseudomonas aeruginosa, P. aeruginosa isolate 29, strain 15545
[42] = Pseudomonas aeruginosa, P. aeruginosa isolate 30, strain B3999-1
[43] = Pseudomonas aeruginosa, P. aeruginosa isolate 31, strain U7688-1
[44] = Pseudomonas aeruginosa, P. aeruginosa isolate 32, strain W2897-1
[45] = Pseudomonas aeruginosa, P. aeruginosa isolate 33, strain W5483-2
[46] = X. maltophila isolate 34, strain ATCC 13637
[47] = X. maltophila isolate 36, strain 16
[48] = X. maltophila isolate 45, strain W11291
[49] = A. calcoaceticus isolate 2, strain 23

SMILES: NC[C@H]1O[C@H](O[C@H]2[C@H](O)[C@@H](O[C@H]3O[C@H](CO)[C@@H](O)[C@H](N)[C@H]3O)[C@H](N)C[C@@H]2N)[C@H](N)C[C@@H]1O [Tobramycin]
- MIC [1, 5]: 4 µg/mL
- MIC [1, 6]: 32 µg/mL
- MIC [1, 7]: 32 µg/mL
- MIC [1, 8]: 32 µg/mL
- MIC [1, 9]: 32 µg/mL
- MIC [1, 10]: 16 µg/mL
- MIC [1, 11]: 2 µg/mL
- MIC [1, 12]: 2 µg/mL
- MIC [1, 13]: 16 µg/mL
- MIC [2, 14]: 4 µg/mL
- MIC [2, 15]: 1 µg/mL
- MIC [2, 16]: 128 µg/mL
- MIC [2, 17]: 4 µg/mL
- MIC [2, 18]: 4 µg/mL
- MIC [2, 19]: 4 µg/mL
- MIC [2, 20]: 4 µg/mL
- MIC [2, 21]: 4 µg/mL
- MIC [2, 22]: 4 µg/mL
- MIC [2, 23]: 4 µg/mL
- MIC [3, 24]: 1 µg/mL
- MIC [3, 25]: 1 µg/mL
- MIC [3, 26]: 2 µg/mL
- MIC [3, 27]: 2 µg/mL
- MIC [3, 28]: 1 µg/mL
- MIC [3, 29]: 1 µg/mL
- MIC [3, 30]: 1 µg/mL
- MIC [3, 31]: 1 µg/mL
- MIC [3, 32]: 1 µg/mL
- MIC [3, 33]: 1 µg/mL
- MIC [3, 34]: 1 µg/mL
- MIC [4, 35]: 1 µg/mL
- MIC [4, 36]: 64 µg/mL
- MIC [4, 37]: 1 µg/mL
- MIC [4, 38]: 1 µg/mL
- MIC [4, 39]: 2 µg/mL
- MIC [4, 40]: 1 µg/mL
- MIC [4, 41]: 2 µg/mL
- MIC [4, 42]: 2 µg/mL
- MIC [4, 43]: 1 µg/mL
- MIC [4, 44]: 1 µg/mL
- MIC [4, 45]: 1 µg/mL
- MIC ([4]; Table 33, P. aeruginosa isolate 23, strain ATCC 27853): 1 μg · mL^1
- MIC ([4]; Table 33, P. aeruginosa isolate 24, strain 34): 64 μg · mL^1
- MIC ([4]; Table 33, P. aeruginosa isolate 25, strain 923-1): 1 μg · mL^1
- MIC ([4]; Table 33, P. aeruginosa isolate 26, strain 3101): 1 μg · mL^1
- MIC ([4]; Table 33, P. aeruginosa isolate 27, strain 14644): 1 μg · mL^1
- MIC ([4]; Table 33, P. aeruginosa isolate 28, strain 15036): 1 μg · mL^1
- MIC ([4]; Table 33, P. aeruginosa isolate 29, strain 15545): 2 μg · mL^1
- MIC ([4]; Table 33, P. aeruginosa isolate 30, strain B3999-1): 1 μg · mL^1
- MIC ([4]; Table 33, P. aeruginosa isolate 31, strain U7688-1): 2 μg · mL^1
- MIC ([4]; Table 33, P. aeruginosa isolate 32, strain W2897-1): 1 μg · mL^1
- MIC ([4]; Table 33, P. aeruginosa isolate 33, strain W5483-2): 2 μg · mL^1

SMILES: CCN1CCN(C(=O)N[C@@H](C(=O)N[C@@H]2C(=O)N3[C@@H]2SC(C)(C)[C@@H]3C(=O)O)c2ccccc2)C(=O)C1=O [Piperacillin]
- MIC [1, 46]: 1020 µg/mL
- MIC [1, 47]: 1020 µg/mL
- MIC [1, 6]: 512 µg/mL
- MIC [1, 7]: 512 µg/mL
- MIC [1, 8]: 512 µg/mL
- MIC [1, 9]: 512 µg/mL
- MIC [1, 10]: 1020 µg/mL
- MIC [1, 11]: 1020 µg/mL
- MIC [1, 12]: 1020 µg/mL
- MIC [1, 13]: 1020 µg/mL
- MIC [1, 48]: 512 µg/mL
- MIC [2, 14]: 8 µg/mL
- MIC [2, 15]: 16 µg/mL
- MIC [2, 16]: 4 µg/mL
- MIC [2, 17]: 16 µg/mL
- MIC [2, 18]: 16 µg/mL
- MIC [2, 19]: 32 µg/mL
- MIC [2, 21]: 256 µg/mL
- MIC [2, 22]: 32 µg/mL
- MIC [2, 23]: 32 µg/mL
- MIC [2, 49]: 1020 µg/mL
- MIC [3, 24]: 8 µg/mL
- MIC [3, 25]: 4 µg/mL
- MIC [3, 26]: 8 µg/mL
- MIC [3, 27]: 8 µg/mL
- MIC [3, 28]: 1020 µg/mL
- MIC [3, 29]: 1020 µg/mL
- MIC [3, 30]: 8 µg/mL
- MIC [3, 31]: 64 µg/mL
- MIC [3, 32]: 1020 µg/mL
- MIC [3, 33]: 16 µg/mL
- MIC [3, 34]: 4 µg/mL
- MIC [4, 36]: 1020 µg/mL
- MIC [4, 37]: 64 µg/mL
- MIC [4, 38]: 64 µg/mL
- MIC [4, 39]: 512 µg/mL
- MIC [4, 40]: 1020 µg/mL
- MIC [4, 41]: 512 µg/mL
- MIC [4, 42]: 512 µg/mL
- MIC [4, 43]: 512 µg/mL
- MIC [4, 44]: 64 µg/mL

SMILES: CC(C)(O/N=C(\C(=O)N[C@@H]1C(=O)N2C(C(=O)[O-])=C(C[n+]3ccccc3)CS[C@H]12)c1csc(N)n1)C(=O)O [Ceftazidime]
- MIC [1, 46]: 64 µg/mL
- MIC [1, 5]: 64 µg/mL
- MIC [1, 47]: 32 µg/mL
- MIC [1, 6]: 512 µg/mL
- MIC [1, 8]: 64 µg/mL
- MIC [1, 9]: 16 µg/mL
- MIC [1, 10]: 4 µg/mL
- MIC [1, 11]: 4 µg/mL
- MIC [1, 12]: 4 µg/mL
- MIC [1, 13]: 64 µg/mL
- MIC [2, 14]: 2 µg/mL
- MIC [2, 16]: 16 µg/mL
- MIC [2, 17]: 16 µg/mL
- MIC [2, 18]: 8 µg/mL
- MIC [2, 19]: 16 µg/mL
- MIC [2, 20]: 16 µg/mL
- MIC [2, 21]: 64 µg/mL
- MIC [2, 49]: 128 µg/mL
- MIC [3, 24]: 4 µg/mL
- MIC [3, 25]: 2 µg/mL
- MIC [3, 26]: 2 µg/mL
- MIC [3, 27]: 2 µg/mL
- MIC [3, 28]: 512 µg/mL
- MIC [3, 29]: 512 µg/mL
- MIC [3, 30]: 2 µg/mL
- MIC [3, 31]: 128 µg/mL
- MIC [3, 32]: 512 µg/mL
- MIC [3, 33]: 512 µg/mL
- MIC [3, 34]: 2 µg/mL
- MIC [4, 35]: 32 µg/mL
- MIC [4, 36]: 32 µg/mL
- MIC [4, 37]: 4 µg/mL
- MIC [4, 38]: 8 µg/mL
- MIC [4, 39]: 128 µg/mL
- MIC [4, 40]: 2 µg/mL
- MIC [4, 41]: 8 µg/mL
- MIC [4, 42]: 16 µg/mL
- MIC [4, 45]: 8 µg/mL

SMILES: C[C@@H](O)[C@H]1C(=O)N2C(C(=O)O)=C(SCCN=CN)C[C@H]12 [Imipenem]
- MIC [2, 14]: 2 µg/mL
- MIC [2, 16]: 16 µg/mL
- MIC [2, 17]: 2 µg/mL
- MIC [2, 18]: 1 µg/mL
- MIC [2, 19]: 4 µg/mL
- MIC [2, 20]: 2 µg/mL
- MIC [2, 21]: 2 µg/mL
- MIC [2, 22]: 2 µg/mL
- MIC [2, 23]: 4 µg/mL
- MIC [2, 49]: 512 µg/mL
- MIC [3, 24]: 1 µg/mL
- MIC [3, 25]: 2 µg/mL
- MIC [3, 26]: 4 µg/mL
- MIC [3, 27]: 2 µg/mL
- MIC [3, 28]: 4 µg/mL
- MIC [3, 29]: 2 µg/mL
- MIC [3, 30]: 4 µg/mL
- MIC [3, 31]: 4 µg/mL
- MIC [3, 32]: 4 µg/mL
- MIC [3, 33]: 2 µg/mL
- MIC [3, 34]: 2 µg/mL
- MIC [4, 35]: 8 µg/mL
- MIC [4, 36]: 512 µg/mL
- MIC [4, 37]: 4 µg/mL
- MIC [4, 38]: 8 µg/mL
- MIC [4, 39]: 16 µg/mL
- MIC [4, 40]: 16 µg/mL
- MIC [4, 41]: 256 µg/mL
- MIC [4, 42]: 256 µg/mL

SMILES: O=C(O)c1cn(C2CC2)c2cc(N3CCNCC3)c(F)cc2c1=O [Ciprofloxacin]
- MIC [1, 5]: 4 µg/mL
- MIC [1, 47]: 8 µg/mL
- MIC [1, 6]: 16 µg/mL
- MIC [1, 7]: 32 µg/mL
- MIC [1, 9]: 4 µg/mL
- MIC [1, 10]: 4 µg/mL
- MIC [1, 11]: 8 µg/mL
- MIC [1, 12]: 8 µg/mL
- MIC [1, 13]: 4 µg/mL
- MIC [1, 48]: 4 µg/mL
- MIC [2, 15]: 8 µg/mL
- MIC [2, 16]: 8 µg/mL
- MIC [4, 39]: 32 µg/mL
- MIC [4, 40]: 16 µg/mL
